Data published in US12252487B2, “Dominant salt forms of pyrimidine derivatives, and crystal forms thereof” (GUANGDONG RAYNOVENT BIOTECH CO., LTD., priority 2019, dated 2025).
In brackets after ≈: the same amount, converted by molar mass.

How the values were obtained:
Assay type in all cases: physicochemical
[1] = XRPD of crystal form after DVS test
Text: The crystal form IV is obtained by heating the crystal form III to lose some crystalline water.

[2] = Crystal form transition observed during experiment / post-treatment; settings: e.g. drying under vacuum at ambient temperature
Text: The crystal form VII and the crystal form VIII can be obtained by similar method but by different post-treatment means.

[3] = Stability study of crystal forms, XRPD characterization on day 14
Method: An amount of sample to be tested was weighed and placed in a dish under conditions including high temperature (60° C.), high humidity (25° C., 92.5% RH), light radiation (25° C., 4500 Lux) and acceleration conditions (40° C., 75% RH), respectively, and sampled for XRPD characterization on day 14. Form I, Form II, Form III were taken for stability study under conditions including high temperature (60° C.), high humidity (25° C., 92.5% RH), light radiation (25° C., 4500 Lux), and acceleration conditions (40° C., 75% RH), and the results are shown in Table 2: […]

[4] = Solubility of Compound 1 in 19 types of solvents at room temperature; settings: for solubility: thermodynamic from solid
Text: Compound 1 was detected at room temperature for its solubility in 19 types of solvents. Specially, Compound 1 obtained in Example 1 was taken as sample for detecting its solubility in methanol, ethanol, water, acetonitrile, dioxane and other solvents.

O=C(O)[C@H]1C2CCC(CC2)[C@@H]1Nc1nc(-c2n[nH]c3ncc(F)cc23)nc(C2CC2)c1F [crystal form IV]
Crystal form change after DVS test (XRPD) [1]: does not change

O=C(O)[C@H]1C2CCC(CC2)[C@@H]1Nc1nc(-c2n[nH]c3ncc(F)cc23)nc(C2CC2)c1F [crystal form VIII]
Stability of the crystal form as concluded from crystal form transitions [2]: high stability

O=C(O)[C@H]1C2CCC(CC2)[C@@H]1Nc1nc(-c2n[nH]c3ncc(F)cc23)nc(C2CC2)c1F [crystal form VII]
Stability of the crystal form as concluded from crystal form transitions [2]: high stability

O=C(O)[C@H]1C2CCC(CC2)[C@@H]1Nc1nc(-c2n[nH]c3ncc(F)cc23)nc(C2CC2)c1F [Crystal Form II]
Results on Day 14 (XRPD) ([3]; High humidity (25° C., 92.5% RH)): No changes
Results on Day 14 (XRPD) ([3]; High temperature (60° C.)): No changes

O=C(O)[C@H]1C2CCC(CC2)[C@@H]1Nc1nc(-c2n[nH]c3ncc(F)cc23)nc(C2CC2)c1F [Crystal Form I]
Results on Day 14 (XRPD) ([3]; Acceleration conditions (40° C., 75% RH)): No changes
Results on Day 14 (XRPD) ([3]; Light radiation (25° C., 4500 Lux)): No changes

O=C(O)[C@H]1C2CCC(CC2)[C@@H]1Nc1nc(-c2n[nH]c3ncc(F)cc23)nc(C2CC2)c1F [Compound 1]
Solubility as a whole compared with WX-216 ([4]; 19 solvents, room temperature): better than that of WX-216
solubility ([4]; organic solvent or mixture, solvent Acetone, 3000 μL, not dissolved completely at 50° C.): < 3300 µg/mL
solubility ([4]; organic solvent or mixture, solvent Acetonitrile, 3000 μL, not dissolved completely at 50° C.): < 3300 µg/mL
solubility ([4]; organic solvent or mixture, solvent Dichloromethane, 3000 μL, not dissolved completely at 50° C.): < 3300 µg/mL
solubility ([4]; organic solvent or mixture, solvent Dimethylformamide, 200 μL): > 50000 µg/mL
solubility ([4]; organic solvent or mixture, solvent Dimethylsulfoxide, 200 μL): > 50000 µg/mL
solubility ([4]; organic solvent or mixture, solvent Dioxane, 3000 μL, not dissolved completely at 50° C.): < 3300 µg/mL
solubility ([4]; organic solvent or mixture, solvent Ethanol, 3000 μL, not dissolved completely at 50° C.): < 3300 µg/mL
solubility ([4]; organic solvent or mixture, solvent Ethyl acetate, 3000 μL, not dissolved completely at 50° C.): < 3300 µg/mL
solubility ([4]; organic solvent or mixture, solvent Ethyl formate, 3000 μL, not dissolved completely at 50° C.): < 3300 µg/mL
solubility ([4]; organic solvent or mixture, solvent Ethylene glycol dimethyl ether, 3000 μL, not dissolved completely at 50° C.): < 3300 µg/mL
solubility ([4]; organic solvent or mixture, solvent Ethylene glycol monomethyl ether, 200 μL): > 50000 µg/mL
solubility ([4]; organic solvent or mixture, solvent Iso-propanol, 3000 μL, not dissolved completely at 50° C.): < 3300 µg/mL
solubility ([4]; organic solvent or mixture, solvent Methanol, 500 μL): 20000 to 50000 µg/mL (≈ 45.4 to 114 mM)
solubility ([4]; organic solvent or mixture, solvent Methyl isobutyl ketone, 3000 μL, not dissolved completely at 50° C.): < 3300 µg/mL
solubility ([4]; organic solvent or mixture, solvent Methyl tert-butyl ether, 3000 μL, not dissolved completely at 50° C.): < 3300 µg/mL
solubility ([4]; organic solvent or mixture, solvent N-hexane, 3000 μL, not dissolved completely at 50° C.): < 3300 µg/mL
solubility ([4]; organic solvent or mixture, solvent N-propanol, 3000 μL, not dissolved completely at 50° C.): < 3300 µg/mL
solubility ([4]; organic solvent or mixture, solvent Tetrahydrofuran, 3000 μL, not dissolved completely at 50° C.): < 3300 µg/mL
solubility ([4]; solvent Water, 200 μL): > 50000 µg/mL

O=C(O)[C@H]1C2CCC(CC2)[C@@H]1Nc1nc(-c2n[nH]c3ncc(F)cc23)nc(C2CC2)c1F [crystal form V]
Stability of the crystal form as concluded from crystal form transitions [2]: high stability

O=C(O)[C@H]1C2CCC(CC2)[C@@H]1Nc1nc(-c2n[nH]c3ncc(F)cc23)nc(C2CC2)c1F [crystal form VI]
Stability of the crystal form as concluded from crystal form transitions [2]: unstable crystal form

O=C(O)[C@H]1C2CCC(CC2)[C@@H]1Nc1nc(-c2n[nH]c3ncc(F)cc23)nc(C2CC2)c1F [crystal form IX]
Stability of the crystal form as concluded from crystal form transitions [2]: intermediate metastable crystal form
